Reference: the supplement of paper PMC10307832

What was measured:
Experiment in all cases: relative viability (nuclei count vs DMSO), 5 days (fraction); higher = more cells survive
[1] = compound: C(C(=O)C(=O)O)Br [Bromopyruvate] + C[C@]1(O)C[C@@H](c2nc(-c3ccc4ccc(-c5ccccc5)nc4c3)c3c(N)nccn32)C1 [Linsitinib] (partner 1 µM)
Outline: (§1)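 For relative viability, nuclei counts in treated wells were divided by those in vehicle wells. Lung cancer cell lines had been pin-tool dosed in 1536-well plates the day after seeding and cultured for 5 days, then fixed and stained in one step (final 0.05% Triton X-100, 1% formaldehyde, 1 ug/ml Hoechst) and imaged at 4×. Doses were one drug alone or a fixed anchor-drug dose plus five library-drug doses (not always all listed) in √10 steps, and values are duplicate-plate medians.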

[2] = compound: CC(O)(CS(=O)(=O)c1ccc(F)cc1)C(=O)Nc1ccc(C#N)c(C(F)(F)F)c1 [Bicalutamide] + CS(=O)(=O)N1CCN(Cc2cc3nc(-c4cccc5[nH]ncc45)nc(N4CCOCC4)c3s2)CC1 [Pictilisib] (partner 1 µM)
Outline: as §1

[3] = compound: C(C(=O)C(=O)O)Br [Bromopyruvate] + C[C@@H](Oc1cc(-c2cnn(C3CCNCC3)c2)cnc1N)c1c(Cl)ccc(F)c1Cl [Crizotinib] (partner 1 µM)
Outline: as §1

[4] = compound: C(C(=O)C(=O)O)Br [Bromopyruvate] + COc1cc2c(Oc3ccc(NC(=O)C4(C(=O)Nc5ccc(F)cc5)CC4)cc3F)ccnc2cc1OCCCN1CCOCC1 [Foretinib] (partner 0.25 µM)
Outline: as §1

Cell Line: LCLC-103H
- relative viability ([1]; first compound 1 µM): 1.28
- relative viability ([1]; first compound 3.162 µM): 1.07
- relative viability ([1]; first compound 10 µM): 1
- relative viability ([1]; first compound 31.62 µM): 1.08
- relative viability ([1]; first compound 100 µM): 1.14
- relative viability ([2]; first compound 0.08 µM): 0.692
- relative viability ([2]; first compound 0.253 µM): 0.444
- relative viability ([2]; first compound 0.8 µM): 0.673
- relative viability ([2]; first compound 2.53 µM): 0.544
- relative viability ([3]; first compound 1 µM): 1.02
- relative viability ([3]; first compound 3.162 µM): 1.06
- relative viability ([3]; first compound 10 µM): 1.05
- relative viability ([3]; first compound 31.62 µM): 1.14
- relative viability ([3]; first compound 100 µM): 1.2
- relative viability ([4]; first compound 1 µM): 0.568
- relative viability ([4]; first compound 3.162 µM): 0.748
- relative viability ([4]; first compound 10 µM): 0.97
- relative viability ([4]; first compound 31.62 µM): 0.797
- relative viability ([4]; first compound 100 µM): 1.02

Cell Line: LCLC-97TM1
- relative viability ([1]; first compound 10 µM): 0.22
- relative viability ([1]; first compound 31.62 µM): 0.198
- relative viability ([1]; first compound 100 µM): 0.162
- relative viability ([2]; first compound 0.08 µM): 0.256
- relative viability ([2]; first compound 0.253 µM): 0.206
- relative viability ([2]; first compound 0.8 µM): 0.228
- relative viability ([2]; first compound 2.53 µM): 0.199
- relative viability ([3]; first compound 10 µM): 0.377
- relative viability ([3]; first compound 31.62 µM): 0.427
- relative viability ([3]; first compound 100 µM): 0.186
- relative viability ([4]; first compound 1 µM): 0.843
- relative viability ([4]; first compound 3.162 µM): 0.916
- relative viability ([4]; first compound 10 µM): 0.917
- relative viability ([4]; first compound 31.62 µM): 0.965
- relative viability ([4]; first compound 100 µM): 1.02

Cell Line: NCI-H838
- relative viability ([1]; first compound 1 µM): 0.966
- relative viability ([1]; first compound 3.162 µM): 1.05
- relative viability ([1]; first compound 10 µM): 1.23
- relative viability ([1]; first compound 31.62 µM): 1.02
- relative viability ([1]; first compound 100 µM): 1.1
- relative viability ([2]; first compound 0.08 µM): 0.589
- relative viability ([2]; first compound 0.253 µM): 0.415
- relative viability ([2]; first compound 0.8 µM): 0.524
- relative viability ([2]; first compound 2.53 µM): 0.324
- relative viability ([3]; first compound 1 µM): 0.959
- relative viability ([3]; first compound 3.162 µM): 0.881
- relative viability ([3]; first compound 10 µM): 0.825
- relative viability ([3]; first compound 31.62 µM): 0.871
- relative viability ([3]; first compound 100 µM): 0.854
- relative viability ([4]; first compound 1 µM): 1.03
- relative viability ([4]; first compound 3.162 µM): 1.08
- relative viability ([4]; first compound 10 µM): 1.07
- relative viability ([4]; first compound 31.62 µM): 1.05
- relative viability ([4]; first compound 100 µM): 1.03

Cell Line: NCI-H1355
- relative viability ([1]; first compound 1 µM): 0.778
- relative viability ([1]; first compound 3.162 µM): 0.772
- relative viability ([1]; first compound 10 µM): 0.914
- relative viability ([1]; first compound 31.62 µM): 0.873
- relative viability ([1]; first compound 100 µM): 0.866
- relative viability ([2]; first compound 0.08 µM): 0.413
- relative viability ([2]; first compound 0.253 µM): 0.316
- relative viability ([2]; first compound 0.8 µM): 0.441
- relative viability ([2]; first compound 2.53 µM): 0.485
- relative viability ([3]; first compound 1 µM): 1.05
- relative viability ([3]; first compound 3.162 µM): 1.06
- relative viability ([3]; first compound 10 µM): 1.18
- relative viability ([3]; first compound 31.62 µM): 1.06
- relative viability ([3]; first compound 100 µM): 0.983
- relative viability ([4]; first compound 1 µM): 0.954
- relative viability ([4]; first compound 3.162 µM): 0.966
- relative viability ([4]; first compound 10 µM): 1.08
- relative viability ([4]; first compound 31.62 µM): 0.909
- relative viability ([4]; first compound 100 µM): 0.995

Cell Line: HOP-62
- relative viability ([1]; first compound 1 µM): 1.04
- relative viability ([1]; first compound 3.162 µM): 1.02
- relative viability ([1]; first compound 31.62 µM): 0.368
- relative viability ([1]; first compound 100 µM): 0.24
- relative viability ([2]; first compound 0.08 µM): 0.971
- relative viability ([2]; first compound 0.253 µM): 0.806
- relative viability ([2]; first compound 0.8 µM): 0.998
- relative viability ([2]; first compound 2.53 µM): 0.614
- relative viability ([3]; first compound 1 µM): 0.923
- relative viability ([3]; first compound 3.162 µM): 0.876
- relative viability ([3]; first compound 31.62 µM): 0.952
- relative viability ([3]; first compound 100 µM): 0.65
- relative viability ([4]; first compound 1 µM): 1.12
- relative viability ([4]; first compound 3.162 µM): 1.17
- relative viability ([4]; first compound 10 µM): 1.12
- relative viability ([4]; first compound 31.62 µM): 0.95
- relative viability ([4]; first compound 100 µM): 0.815

Cell Line: NCI-H2087
- relative viability ([1]; first compound 1 µM): 0.856
- relative viability ([1]; first compound 3.162 µM): 1.04
- relative viability ([1]; first compound 10 µM): 0.932
- relative viability ([1]; first compound 31.62 µM): 0.954
- relative viability ([1]; first compound 100 µM): 0.959
- relative viability ([2]; first compound 0.08 µM): 0.84
- relative viability ([2]; first compound 0.253 µM): 0.891
- relative viability ([2]; first compound 0.8 µM): 1.05
- relative viability ([2]; first compound 2.53 µM): 0.835
- relative viability ([3]; first compound 1 µM): 0.9
- relative viability ([3]; first compound 3.162 µM): 0.957
- relative viability ([3]; first compound 10 µM): 0.661
- relative viability ([3]; first compound 31.62 µM): 0.78
- relative viability ([3]; first compound 100 µM): 0.78
- relative viability ([4]; first compound 1 µM): 1.13
- relative viability ([4]; first compound 3.162 µM): 1.17
- relative viability ([4]; first compound 10 µM): 0.97
- relative viability ([4]; first compound 31.62 µM): 1.12
- relative viability ([4]; first compound 100 µM): 0.595
